Assay results from patent US20030232851A1, “Viral treatment” (The Procter & Gamble Company, priority 1999, published 2003).
Where “and” joins values, the source holds several entries; their conditions need not be identical. Equal values may be shown once.

Experiments:
CEMROD = CEMROD screening: toxicity values (XTT); assay type: cell-based, human; design: Toxicity Values, samples 1-3 / Toxicity Values, average: unit not given here
Description: After 6 days (or the experimental period) of incubation at 37° C. in a 5% carbon dioxide incubator the test plates are analyzed by staining with the tetrazolium dye XTT. […] On day 6 post-infection plates are removed from the incubator and observed. […] The results of the macroscopic observations were confirmed and enhanced by further microscopic analysis.
Phenazine methosulfate (PMS) solution is prepared at 15 mg/ml in PBS and stored in the dark at −20° C. […] Fifty microliters of XTT/PMS is added to each well of the plate and the plate is reincubated or 4 hours at 37° C. […] Percent cell reduction, percent cell viability, IC25,50, & 95 and TC25,50, & 95 can then be calculated.

HIV-1 cell line, CEMIIIB = assay: Long term in vitro study, CEMIIIB, reverse transcriptase; assay type: cell-based
Description: A microtiter-based reveres transcriptase (RT) reaction is utilized (Buckheit et al (1991) AIDS Research and Human Retroviruses 7:295-302). Tritiated thymidine triphosphate (NEN)(TTP) is resuspended in distilled water at 5 Ci/ml. Poly rA and oligo dT are prepared as a stock solution which is kept at −20° C. The RT reaction buffer is prepared fresh on a daily basis and consists of 125 μl 1M EGTA, 125 μl water, 125 μl Triton X-100, 50 μl Tris (pH 7.4), 50 μl 1 MDDT, and 40 μl 1M MgCl2. These three solutions are mixed together in a ratio of 1 part TTP, 2.5 parts poly rA:oligo dT, 2.5 parts reaction buffer and 4 parts distilled water. Ten microliters of this reaction mixture is placed in a round bottom microtiter place and 15 μl of virus containing supernatant is added and mixed. The plate is incubated at 37° C. for 60 minutes. Following reaction, the reaction volume is spotted onto filter mats, washed 6 times for 5 minutes each in a 5% sodium phosphate buffer, 2 times for 1 minute each in distilled water, 2 times for 1 minute each in 70% ethanol, and then dried. The dried filter mat is placed in a plastic sample bag, Betaplate scintillation fluid is added and the bag is heat sealed. Incorporated radioactivity is quantified utilizing a Wallac Microbeta scintillation counter.
Acute infection of most established human cell lines with HIV-1 results in the eventual establishment of a constitutive virus-producing chronically infected cell line. The cells can be passaged for long periods of time in culture without loss of virus production. These cells may be utilized to evaluate the effects of anti-HIV compounds on syncytium formation or to evaluate the effects of anti-HIV compounds on levels of virus production from these cells. […] Each of the cells contains an integrated HIV genome or provirus. Chronically infected CEM, H9 and U937 cell lines have been prepared and cultured by Southern Research Institute, Frederick Md. and are available from them.
CEM-SS cells chronically infected with HIV isolate, for example SKI (CEM-SKI) are cultured in RPMI1640 tissue culture medium supplemented with 10% fetal bovine serum and antibiotics. […] CEM-SKI or other infected cells with no added drug are used as the control cells. Cells are allowed to grow to a density of approximately 1×10^6 cells/ml and are then passaged at a 1:10 dilution. […] The drug concentration in the flask is then increased two-fold and the cells maintained as above.
The cell populations contain integrated copies of the HIV genome and constitutively produce HIV at relatively high levels or are latently infected and only produce virus after stimulation with phorbol esters, tumor necrosis factor or IL6 (U1 and ACH2). Reductions in virus products were observed when quantifying supernatant reverse transcriptase activity,
A long term in vitro study of 2-(2-thienyl)-imidazolo [4,5-b]pyridine against an HIV-1 cell line, CEMIIIB was conducted at three different levels. The results with CEMIIIB cells were reported at weekly intervals. The CEMIIIB is a viral strain of the CEMSS cell line and is a chronic HIV cell line.

[1] = Table 2 duplicate study, 0.32 μg/ml
[2] = Table 2 duplicate study, 1 μg/ml
[3] = Table 2 duplicate study, 1.0 μg/ml
[4] = Table 2 duplicate study, 3.2 μg/ml
[5] = Table 2 duplicate study, 32 μg/ml
[6] = Table 2 duplicate study, 100 μg/ml

c1csc(-c2nc3cccnc3[nH]2)c1 [2-(2-thienyl)-imidazolo [4,5-b]pyridine]
Toxicity Values, % cell control (CEMROD; Table 1, 0.32 μg/ml): 102%
Toxicity Values, average (CEMROD; Table 1, 0.32 μg/ml): 1.144
Toxicity Values, % cell control (CEMROD; Table 1, 1 μg/ml): 100.1%
Toxicity Values, average (CEMROD; Table 1, 1 μg/ml): 1.122
Toxicity Values, % cell control (CEMROD; Table 1, 1.0 μg/ml): 81.3%
Toxicity Values, average (CEMROD; Table 1, 1.0 μg/ml): 0.912
Toxicity Values, % cell control (CEMROD; Table 1, 3.2 μg/ml): 94.1%
Toxicity Values, average (CEMROD; Table 1, 3.2 μg/ml): 1.055
Toxicity Values, % cell control (CEMROD; Table 1, 32 μg/ml): 28.7%
Toxicity Values, average (CEMROD; Table 1, 32 μg/ml): 0.322
Toxicity Values, % cell control (CEMROD; Table 1, 100 μg/ml): 7.6%
Toxicity Values, average (CEMROD; Table 1, 100 μg/ml): 0.086
Toxicity Values, % cell control (CEMROD; [1]): 114.7%
Toxicity Values, average (CEMROD; [1]): 1.088
Toxicity Values, samples 1-3 (CEMROD; [1]): 1.189 and 1.074 and 1.000
Toxicity Values, % cell control (CEMROD; [2]): 108.4%
Toxicity Values, average (CEMROD; [2]): 1.028
Toxicity Values, samples 1-3 (CEMROD; [2]): 1.066 and 1.038 and 0.980
Toxicity Values, % cell control (CEMROD; [3]): 72.2%
Toxicity Values, average (CEMROD; [3]): 0.684
Toxicity Values, samples 1-3 (CEMROD; [3]): 0.694 and 0.726 and 0.633
Toxicity Values, % cell control (CEMROD; [4]): 98.9%
Toxicity Values, average (CEMROD; [4]): 0.938
Toxicity Values, samples 1-3 (CEMROD; [4]): 1.008 and 0.924 and 0.881
Toxicity Values, % cell control (CEMROD; [5]): 17.4%
Toxicity Values, average (CEMROD; [5]): 0.165
Toxicity Values, samples 1-3 (CEMROD; [5]): 0.183 and 0.168 and 0.145
Toxicity Values, % cell control (CEMROD; [6]): 13.5%
Toxicity Values, average (CEMROD; [6]): 0.128
Toxicity Values, samples 1-3 (CEMROD; [6]): 0.121 and 0.133 and 0.130
toxicity (in words) (CEMROD; at the higher concentrations): not toxic
reverse transcriptase data (HIV-1 cell line, CEMIIIB; 7 μg/ml, day 4): 4631
reverse transcriptase data (HIV-1 cell line, CEMIIIB; 7 μg/ml, day 11): 4222
reverse transcriptase data (HIV-1 cell line, CEMIIIB; 7 μg/ml, day 18): 843
reverse transcriptase data (HIV-1 cell line, CEMIIIB; 7 μg/ml, day 25): 1052
reverse transcriptase data (HIV-1 cell line, CEMIIIB; 7 μg/ml, day 32): 1456
reverse transcriptase data (HIV-1 cell line, CEMIIIB; 7 μg/ml, day 39): 4298
reverse transcriptase data (HIV-1 cell line, CEMIIIB; 7 μg/ml, day 46): 1643
reverse transcriptase data (HIV-1 cell line, CEMIIIB; 7 μg/ml, day 53): 1458
reverse transcriptase data (HIV-1 cell line, CEMIIIB; 7 μg/ml, day 60): 1409
reverse transcriptase data (HIV-1 cell line, CEMIIIB; 7 μg/ml, day 67): 1903
reverse transcriptase data (HIV-1 cell line, CEMIIIB; 7 μg/ml, day 71): 1832
reverse transcriptase data (HIV-1 cell line, CEMIIIB; 7 μg/ml, day 74): 1980
reverse transcriptase data (HIV-1 cell line, CEMIIIB; 7 μg/ml, day 88): 1520
reverse transcriptase data (HIV-1 cell line, CEMIIIB; 7 μg/ml, day 95): 1367
reverse transcriptase data (HIV-1 cell line, CEMIIIB; 7 μg/ml, day 102): 1497
reverse transcriptase data (HIV-1 cell line, CEMIIIB; 7 μg/ml, day 109): 1165
reverse transcriptase data (HIV-1 cell line, CEMIIIB; 15 μg/ml, day 4): 5622
reverse transcriptase data (HIV-1 cell line, CEMIIIB; 15 μg/ml, day 11): 1828
reverse transcriptase data (HIV-1 cell line, CEMIIIB; 15 μg/ml, day 18): 683
reverse transcriptase data (HIV-1 cell line, CEMIIIB; 15 μg/ml, day 25): 741
reverse transcriptase data (HIV-1 cell line, CEMIIIB; 15 μg/ml, day 32): 1005
reverse transcriptase data (HIV-1 cell line, CEMIIIB; 15 μg/ml, day 39): 948
reverse transcriptase data (HIV-1 cell line, CEMIIIB; 15 μg/ml, day 46): 1361
reverse transcriptase data (HIV-1 cell line, CEMIIIB; 15 μg/ml, day 53): 1281
reverse transcriptase data (HIV-1 cell line, CEMIIIB; 15 μg/ml, day 60): 679
reverse transcriptase data (HIV-1 cell line, CEMIIIB; 15 μg/ml, day 67): 1251
reverse transcriptase data (HIV-1 cell line, CEMIIIB; 15 μg/ml, day 71): 1241
reverse transcriptase data (HIV-1 cell line, CEMIIIB; 15 μg/ml, day 74): 1361
reverse transcriptase data (HIV-1 cell line, CEMIIIB; 15 μg/ml, day 88): 1201
reverse transcriptase data (HIV-1 cell line, CEMIIIB; 15 μg/ml, day 95): 562
reverse transcriptase data (HIV-1 cell line, CEMIIIB; 15 μg/ml, day 102): 1043
reverse transcriptase data (HIV-1 cell line, CEMIIIB; 15 μg/ml, day 109): 1036
reverse transcriptase data (HIV-1 cell line, CEMIIIB; 30 μg/ml, day 4): 1968
reverse transcriptase data (HIV-1 cell line, CEMIIIB; 30 μg/ml, day 11): 2145
reverse transcriptase data (HIV-1 cell line, CEMIIIB; 30 μg/ml, day 18): 554
reverse transcriptase data (HIV-1 cell line, CEMIIIB; 30 μg/ml, day 25): 436
reverse transcriptase data (HIV-1 cell line, CEMIIIB; 30 μg/ml, day 32): 712
reverse transcriptase data (HIV-1 cell line, CEMIIIB; 30 μg/ml, day 39): 520
reverse transcriptase data (HIV-1 cell line, CEMIIIB; 30 μg/ml, day 46): 281
reverse transcriptase data (HIV-1 cell line, CEMIIIB; 30 μg/ml, day 53): 543
reverse transcriptase data (HIV-1 cell line, CEMIIIB; 30 μg/ml, day 60): 406
reverse transcriptase data (HIV-1 cell line, CEMIIIB; 30 μg/ml, day 67): 391
reverse transcriptase data (HIV-1 cell line, CEMIIIB; 30 μg/ml, day 71): 281
reverse transcriptase data (HIV-1 cell line, CEMIIIB; 30 μg/ml, day 74): 651
reverse transcriptase data (HIV-1 cell line, CEMIIIB; 30 μg/ml, day 88): 241
reverse transcriptase data (HIV-1 cell line, CEMIIIB; 30 μg/ml, day 95): 102
reverse transcriptase data (HIV-1 cell line, CEMIIIB; 30 μg/ml, day 102): 256
reverse transcriptase data (HIV-1 cell line, CEMIIIB; 30 μg/ml, day 109): 376
reverse transcriptase data on continuation (in words) (HIV-1 cell line, CEMIIIB; run through 242 days): data remained consistent
